Reference: US11197903B2, “Composition containing a bean extract for improving blood circulation and vascular health and method for improving blood circulation and vascular health” (AMOREPACIFIC CORPORATION, priority 2009, dated 2021)

How the values were obtained:
[1] = test system: rats fed high-cholesterol diet; assay: Serum and liver lipid levels in high-cholesterol diet animal model; assay type: in vivo, rat; conditions: 200 mg/kg orally, 4 weeks
Procedure: 8-week-old female rats weighing 250-300 g were kept in polycarbonate cages, 8 heads per cage, maintained at 22±2° C. and 55±15% relative humidity with 12/12-hr light/dark cycles. Normal diet or high-cholesterol diet was provided and water was given freely. Fenofibric acid (200 mg/kg) used for treatment of hyperlipidemia was suspended in 1% methyl cellulose (MC) and orally administered as a positive control. The seoritae extract (200 mg/kg) was orally administered once a day for 4 weeks. […] After the centrifugation, total cholesterol, LDL-cholesterol, HDL-cholesterol and triglyceride levels in the obtained serum were evaluated. The analysis was performed using an automated hematology analyzer and the Roche diagnostic kit. The result is shown in Table 17 (serum lipids) and Table 18 (liver lipids).

[2] = in vivo
Procedure: Bleeding time was compared for the cases where 20% ethanol seoritae extract, aspirin or clopidogrel was treated.

| bleeding time (FIG. 18) [2] | Compound | Total cholesterol ([1]; liver) [µg/mg] | Triglyceride ([1]; liver) [µg/mg] | HDL-cholesterol ([1]; serum) [mg/dL] | LDL-cholesterol ([1]; serum) [mg/dL] | Total cholesterol ([1]; serum) [mg/dL] |
| --- | --- | --- | --- | --- | --- | --- |
|  | CC(C)(Oc1ccc(C(=O)c2ccc(Cl)cc2)cc1)C(=O)O [Positive control, Fenofibric acid] | 15.43 ± 0.52 | 185.39 ± 23.84 | 87.89 ± 6.84 | 75.34 ± 2.80 | 112.42 ± 13.33 |
| significant increase of bleeding time | CC(=O)Oc1ccccc1C(=O)O [aspirin] |  |  |  |  |  |
| significant increase of bleeding time | COC(=O)[C@H](c1ccccc1Cl)N1CCc2sccc2C1 [clopidogrel] |  |  |  |  |  |
